Entries after “also recorded” stand apart in the source; their conditions may differ.
Legend:
[1] = system: ES cell-derived insulin-secreting islet clusters; assay: Insulin secretion from ES cell-derived islet clusters, insulin ELISA; format: cell-based, murine; conditions: for insulin secretion in response to agonists (secretagogues): in the presence of low concentration (5 mM) of glucose
Description: A series of experiments were conducted to measure the kinetics and pharmacology of glucose-dependent insulin release. Insulin secretion was measured in Krebs-Ringer-bicarbonate buffer containing 120 mM NaCl, 5 mM KCl, 2.5 mM CaCl2, 1.1 mM MgCl2, 25 mM NaHCO3 and 0.1% bovine serum albumin at 37° C. Inhibitors of insulin secretion (nifedipine and diazoxide) were added to buffer during preincubation (30 min) and throughout the incubation period. For determination of total cellular insulin content, insulin was extracted from cells with acid ethanol (10% glacial acetic acid in absolute ethanol) overnight at 4° C., followed by cell sonication. Total cellular and secreted insulin was assayed using insulin ELISA kit (ALPCO, Windham, N.H.). Protein concentrations were determined using DC protein assay system (Bio-Rad, Hercules, Calif.).
To determine if the islet clusters utilize physiological glucose-mediated signaling pathways, the effect of several well-characterized agonists and antagonists of insulin secretion were examined. The mechanism by which glucose stimulates insulin secretion in vivo is complex. As outlined in FIG. 3B, transport of glucose into the cell, and its metabolism results in ATP production, an event which, in turn, leads to inhibition of ATP-dependent K^+ channels, cell membrane depolarization, opening of the voltage-dependent Ca^++ channels, and influx of extracellular Ca^++ into the cell. Additionally, intracellular Ca^++ can be elevated by release of Ca^++ from intracellular stores through other mechanisms. Elevation of free intracellular Ca^++ is coupled to multiple phosphorylation events modulated by protein kinase C (PKC) and protein kinase A (PKA) cascades, which ultimately lead to release of insulin from the cell (McClenaghan et al., J Mol. Med., 77:235, 1999).

[2] = system: ES cell cultures; assay: LIF treatment of ES cell cultures at stage 2 (EB formation), immunostaining for EN-1, PDX-1, TuJ1, GFAP; format: cell-based
Description: FIG. 5 is a set of panels showing the neural and pancreatic differentiation of ES cells. FIG. 1A is a set of digital images showing the cells during the procedure for induction of midbrain dopaminergic neurons from ES cells as previous described (see WO 01/83715, herein incorporated by reference). Briefly, the ES cells were taken through 5 steps or stages. In stage 1 undifferentiated ES cells were cultured for 5 days in the presence of 15% fetal calf serum (FCS) on gelatin coated tissue culture dishes in the presence of LIF (1,400 U/ml). In stage 2 embryoid bodies (Ebs) were generated in the presence of FCS for 4 days in the presence or absence of LIF (1,000 U/ml.). In stage 3, the EBs were plated into ITSFn medium (Okabe et al., Mech. Dev. 59: 89-102, 1996) where over 10 days Nestin+ cells migrated from the cell aggregates. In stage 4 these Nestin+ cells were resuspended and expanded for 4 days in N2 medium containing bFGF, sonic hedgehog (Shh) and fibroblast growth factor-8 (FGF8). In stage 5 the medium was changed into N2 medium without bFGF, Shh or FGF8. These cells differentiated efficiently into neurons and astrocytes over a two week period. Embryoid bodies were generated in the presence (LIF+) or absence (LIF−) of LIF (1000 U/ml) and differentiated. Double-immunostaining for TuJ1/GFAP (upper panels, day 8 in stage 5) and PDX-1/En-1 (lower panels, day 3 in stage 4). LIF treatment in stage 2 (EB formation) increases the neuronal (TuJ1+cells, light grey) and decreases the astrocytic (GFAP+, dark grey) population. […] FIG. 5C is a bar graph showing that the yield of En-1+ and PDX-1+ cells is expressed as a percentage of total cells at stage 4.
The methods disclosed herein include five stages: (1) expansion of ES cells (2) generation of EB (3) selection for CNS precursor cells (4) expansion of pancreatic (versus central nervous system (CNS)) precursor cells, and (5) differentiation of pancreatic endocrine cells (versus differentiation of neuronal cells). Expansion of ES cells and generation of EB was performed as disclosed herein. EB were cultured in DMEM/15% serum (ES medium) with LIF (1000 units (U)/ml) for 4 days with changing medium every 2 day. After 4 days, EBs were transferred to a tissue culture dish cultured in ITS medium containing fibronectin for 10-12 days. EBs which were kept in absence of LIF in stage II were phenotypically different than EB cultured in the presence of LIF in stage II. In stage 1V, ES-derived CNS precursor were cultured in N2 medium in the presence of bFGF (20 ng/ml) and Shh (500 ng/ml) and FGF8 (100 ng/ml) for 4 days and after withdrawal of bFGF/SHH/FGF8, differentiated them for 10-12 day in N2 medium with ascorbic acid. Specifically, EB cultured in the absence of LIF were spread out in stage III. EBs which were treated with LIF maintained a round shape and CNS precursor cells migrated from attaching point of EB in dishes. Therefore, a selection for CNS precursor was accomplished by culturing in the […] of LIF.

[3] = at stage 4, LIF at stage 2 (EB formation)

CC(C)Cn1c(=O)n(C)c(=O)c2[nH]cnc21 [IBMX, 3-isobutil-1-methylxanthine]
insulin secretion in response to agonists (secretagogues) [1]: stimulated insulin secretion

C[N+](C)(C)CCOC(N)=O [carbachol]
insulin secretion in response to agonists (secretagogues) [1]: stimulated insulin secretion

CC1=NS(=O)(=O)c2cc(Cl)ccc2N1 [diazoxide]
insulin secretion in the presence of antagonists (inhibitors) ([1]; in the presence of high glucose concentrations (20 mM)): inhibited insulin secretion

CCCCNC(=O)NS(=O)(=O)c1ccc(C)cc1 [tolbutamide]
insulin secretion in response to agonists (secretagogues) [1]: stimulated insulin secretion

LIF: growth factor that prevents differentiation of ES cells; glycosylated 58 kDa protein of 179 amino acids
PDX-1 positive cells / pancreatic precursor cells [2, 3]: negatively regulates; also recorded: Only few
expression of EN-1 / midbrain precursor cells (En-1+ cells) [2, 3]: efficiently enhances; also recorded: increases
EN-1 positive cells, share of total ES cell-derived cell population ([2]; at stage 4, LIF present at stage 2): up to 80%
yield of neurons / neuronal (TuJ1+) population ([2]; at stage 5, LIF at stage 2 (EB formation)): increased
astrocytic (GFAP+) population ([2]; day 8 in stage 5, LIF at stage 2 (EB formation)): decreases

Source: patent US20040121460A1, “Differentiation of stem cells to pancreatic endocrine cells” (priority 2003, published 2004)
